Experimental data published in patent US9539231B2, “Method for treating triple-negative breast cancer using AMPI-109” (The Regents of the University of Colorado, a body corporate, priority 2014, dated 2017).

Legend:
[1] = tested on: BT-20 cells; assay: Block of AMPI-109-mediated growth inhibition by RXR antagonist; format: cell-based, human; conditions: doses which blocked VDR-mediated gene expression
Description: VDR activates gene expression as a heterodimer with the retinoid X receptor (RXR). The inventors thus also tested whether pharmacologic inhibition of the VDR axis with HX531, an RXR antagonist, would block AMPI-109-mediated growth inhibition of BT-20 cells.

[2] = tested on: VDR-mediated gene expression; assay: VDR-mediated gene expression; format: cell-based
[3] = tested on: BT-20; assay: MTS growth assay, 3 days treatment; format: cell-based, human; conditions: BT-20, TN (Unclass.), 100 nM
Description: (§1) Breast cancer is a very heterogeneous disease consisting of multiple molecular subtypes. In order to examine the antitumorigenic properties of AMPI-109 in human breast cancer cells of various subtypes, a cohort of breast cancer cell lines were treated with AMPI-109 at its IC50 (the dose where 50% of the cells show the desired effects), equimolar 1,25D or ethanol control and cellular growth was quantified. In particular, the cell lines were treated at the approximate IC50 (100 nM) of AMPI-109, 1,25D (100 nM) or ethanol control for 3 days. MTS assays were then performed. The experiment was repeated three times with 6 replicates per experiment.
(§2) The percentage in Table 1 represents growth compared to control treatment. The p values represent significance of difference between 1,25D inhibition and AMPI-109 inhibition of growth. It can be concluded from the data that AMPI-109 inhibits the growth of multiple TN breast cancer subtypes and this inhibition appeared to be almost entirely specific for TN breast cancer cell lines.

[4] = tested on: BT-474; assay: MTS growth assay, 3 days treatment; format: cell-based, human; conditions: BT-474, Luminal B, 100 nM
Description: as §1, §2

[5] = tested on: BT-549; assay: MTS growth assay, 3 days treatment; format: cell-based, human; conditions: BT-549, TN (M), 100 nM
Description: as §1, §2

[6] = tested on: HCC70; assay: MTS growth assay, 3 days treatment; format: cell-based, human; conditions: HCC70, TN (BL2), 100 nM
Description: as §1, §2

[7] = tested on: MCF10A; assay: MTS growth assay, 3 days treatment; format: cell-based, human; conditions: Nonmalignant, 100 nM
Description: as §1, §2

[8] = tested on: MCF7; assay: MTS growth assay, 3 days treatment; format: cell-based, human; conditions: MCF7, Luminal A, 100 nM
Description: as §1, §2

[9] = tested on: MDA-231; assay: MTS growth assay, 3 days treatment; format: cell-based, human; conditions: MDA-231, TN (MSL), 100 nM
Description: as §1, §2

[10] = tested on: MDA-453; assay: MTS growth assay, 3 days treatment; format: cell-based, human; conditions: MDA-453, HER2, 100 nM
Description: as §1, §2

[11] = tested on: MDA-468; assay: MTS growth assay, 3 days treatment; format: cell-based, human; conditions: MDA-468, TN (BL1), 100 nM
Description: as §1, §2

[12] = tested on: SKBR3; assay: MTS growth assay, 3 days treatment; format: cell-based, human; conditions: SKBR3, HER2, 100 nM
Description: as §1, §2

[13] = tested on: SUM149; assay: MTS growth assay, 3 days treatment; format: cell-based, human; conditions: SUM149, TN (BL2), 100 nM
Description: as §1, §2

[14] = tested on: T47D; assay: MTS growth assay, 3 days treatment; format: cell-based, human; conditions: Luminal A, 100 nM
Description: as §1, §2

[15] = tested on: human breast cancer cells; assay: IC50 of AMPI-109 for cellular growth (MTS); format: cell-based; conditions: breast cancer cell lines, read-out: approximate IC50
Description: as §1

[16] = tested on: patient-derived triple negative breast cancer tumor xenograft; assay: Patient-derived TNBC tumor xenograft growth inhibition; format: in vivo, NOD-SCID mice; conditions: 1 ug/kg i.p. every other day for three weeks, vs vehicle
Description: The inventors further examined the ability of AMPI-109 to inhibit the growth of a patient-derived triple negative breast cancer tumor xenograft. A tumor from a person diagnosed with stage 4 triple negative breast cancer was propagated by serial passage through NOD-SCID mice. The tumor was dissected into equal sizes and implanted into the left and right mammary fat pads of 12 NOD-SCID mice. Once the tumors reached 100 mm^3 in size the mice were randomized into vehicle- and AMPI-109-treated arms. A total of 19 tumors grew out (9 for vehicle, and 10 for AMPI-109 treated). Vehicle control or AMPI-109 (1 ug/kg body weight) was administered by i.p. injection every other day for three weeks. Upon completion of the study, the tumors were excised and volume and mass were determined. […] The results were shown in FIG. 1, where * indicates a p value of 0.018, which was determined by T-test.

[17] = tested on: BT-20; assay: Cell viability by crystal violet staining, 7 days; format: cell-based, human; conditions: 100 nM
Description: (§3) In order to determine the effects of AMPI-109 on cell viability as one possible explanation of the reduction in tumor size, the inventors plated various breast cancer cell lines in 6-well dishes and treated with either ethanol control (CU), vitamin D (1,25D) or AMPI-109. 1,25D and AMPI-109 were administered at 100 nM. The plates were incubated for 7 days and cell viability was assessed by crystal violet staining.

[18] = tested on: MCF-10A; assay: Cell viability by crystal violet staining, 7 days; format: cell-based, human; conditions: MCF-10A non-malignant, 100 nM
Description: as §3

[19] = tested on: MCF7; assay: Cell viability by crystal violet staining, 7 days; format: cell-based, human; conditions: MCF7 luminal A, 100 nM
Description: as §3

[20] = tested on: MDA-231; assay: Cell viability by crystal violet staining, 7 days; format: cell-based, human; conditions: 100 nM
Description: as §3

[21] = tested on: BT-20; assay: Apoptosis ELISA assay, 24 hours; format: cell-based, human; conditions: 100 nM
Description: (§4) The inventors also examined the ability of AMPI-109 to induce apoptosis in TN breast cancer cells by performing ELISA assays. Various cell lines (MCF10A, MCF-7, BT-20 and MDA-231) were treated with ethanol control (C), paclitaxel (100 nM, (T)), 1,25D (100 nM), (D)), or AMPI-109 (100 nM), (A)) for 24 hours. ELISA assays were then performed. The p values in the figure were determined by T-test. […] Therefore, it can be concluded that AMPI-109 appears to specifically induce apoptosis in TN breast cancer cells.

[22] = tested on: MDA-231; assay: Apoptosis ELISA assay, 24 hours; format: cell-based, human; conditions: 100 nM
Description: as §4

[23] = tested on: BT-20; assay: PARP cleavage by western blot, 24 hours; format: cell-based, human; conditions: 100 nM
Description: (§5) Cleavage of poly (ADP)-ribose polymerase (PARP), a hallmark of apoptosis, was used to further investigate the ability of AMPI-109 to induce apoptosis of TN breast cancer cells. FIG. 2C, wherein PARP cleavage was determined by western blot, summarizes the results of cleaved PARP after treating MCF10A, MCF-7, BT-20 and MDA-231 with ethanol control (C), paclitaxel (100 nM, (T)), 1,25D (100 nM), (D)), or AMPI-109 (100 nM), (A)) for 24 hours. […] Accordingly, the results as described in FIG. 2A, FIG. 2B, and FIG. 2C indicate the capability of AMPI-109 as an agent to induce apoptosis of TN breast cancer cells.

[24] = tested on: MCF-7; assay: PARP cleavage by western blot, 24 hours; format: cell-based, human; conditions: 100 nM
Description: as §5

[25] = tested on: MCF10A; assay: PARP cleavage by western blot, 24 hours; format: cell-based, human; conditions: 100 nM
Description: as §5

[26] = tested on: MDA-231; assay: PARP cleavage by western blot, 24 hours; format: cell-based, human; conditions: 100 nM
Description: as §5

[27] = tested on: BT-20 cells; assay: Growth assay in BT-20 cells with VDR shRNA knock down, 72 hours; format: cell-based, human; conditions: p<0.001
Description: The inventors used shRNAs directed against VDR in BT-20 cells and examined the response after treatment with AMPI-109. […] The non-silencing control is designated as pLKO.

[28] = tested on: MCF-10A; assay: Apoptosis ELISA assay, 24 hours; format: cell-based, human; conditions: 100 nM
Description: as §4

[29] = tested on: MCF-7; assay: Apoptosis ELISA assay, 24 hours; format: cell-based, human; conditions: 100 nM
Description: as §4

Q: How did the “effect on AMPI-109-mediated growth inhibition” value [1] turn out when `CN1c2ccc([N+](=O)[O-])cc2N=C(c2ccc(C(=O)O)cc2)c2cc3c(cc21)C(C)(C)CCC3(C)C` [HX531] was run?
A: did not inhibit the antiproliferative effects of AMPI-109

Q: And the “effect on VDR-mediated gene expression” value [2]?
A: blocked VDR-mediated gene expression

Q: What does the source list for `C=C1/C(=C\C=C2/CCC[C@]3(C)[C@@H]([C@H](C)CCCC(C)(C)O)CC[C@@H]23)C[C@@H](OC(=O)CBr)C[C@@H]1O` [AMPI-109, 1α,25-Dihydroxyvitamin D3-3β-bromoacetate]?
A: % Control (growth compared to control treatment) [3]: 29%; % Control (growth compared to control treatment) [4]: 66%; % Control (growth compared to control treatment) [5]: 69%; % Control (growth compared to control treatment) [6]: 49%; % Control (growth compared to control treatment) [7]: 99%; % Control (growth compared to control treatment) [8]: 93%; % Control (growth compared to control treatment) [9]: 44%; % Control (growth compared to control treatment) [10]: 86%; % Control (growth compared to control treatment) [11]: 39%; % Control (growth compared to control treatment) [12]: 99%; % Control (growth compared to control treatment) [13]: 39%; % Control (growth compared to control treatment) [14]: 94%; IC50 [15]: ~100 nM; tumor mass [16]: significant reduction; tumor volume [16]: significant reduction; reduction of the size of the tumors ([16]; p 0.018): approximately 30%; cell viability (crystal violet staining) [17]: significant reduction in cell viability; cell viability (crystal violet staining) [18]: no effect on cell viability; cell viability (crystal violet staining) [19]: no effect on cell viability; cell viability (crystal violet staining) [20]: significant reduction in cell viability; induction of apoptosis (ELISA) [21]: strong induction of apoptosis; induction of apoptosis (ELISA) [22]: strong induction of apoptosis; PARP cleavage (western blot) [23]: promoted PARP cleavage; PARP cleavage (western blot) [24]: only in BT-20 and MDA-231 cells; PARP cleavage (western blot) [25]: only in BT-20 and MDA-231 cells; PARP cleavage (western blot) [26]: promoted PARP cleavage; growth inhibition ([27]; BT-20 cells with VDR knocked down (VDR3, VDR8 shRNAs)): equally effective at inhibiting the growth; growth inhibition ([27]; BT-20 control cells (pLKO non-silencing)): equally effective at inhibiting the growth

Q: How did the “% Control (growth compared to control treatment)” value (“% Control” for short) [3] turn out when `C=C1/C(=C\C=C2/CCC[C@]3(C)[C@@H]([C@H](C)CCCC(C)(C)O)CC[C@@H]23)C[C@@H](O)C[C@@H]1O` [1,25D, reference compound] was run?
A: 82%

Q: And the “% Control” value [4]?
A: 87%

Q: And the “% Control” value [5]?
A: 94%

Q: What about the “% Control” value [6] of the same molecule?
A: 83%

Q: And the “% Control” value [7]?
A: 102%

Q: And the “% Control” value [8]?
A: 95%

Q: And the “% Control” value [9]?
A: 96%

Q: What about the “% Control” value [10] of the same molecule?
A: 94%

Q: And the “% Control” value [11]?
A: 86%

Q: What about the “% Control” value [12] of the same molecule?
A: 100%

Q: And the “% Control” value [13]?
A: 92%

Q: What about the “% Control” value [14] of the same molecule?
A: 98%

Q: What does the source list for `CC(=O)O[C@H]1C(=O)[C@@]2(C)[C@H]([C@H](OC(=O)c3ccccc3)[C@]3(O)C[C@H](OC(=O)[C@H](O)[C@@H](NC(=O)c4ccccc4)c4ccccc4)C(C)=C1C3(C)C)[C@]1(OC(C)=O)CO[C@@H]1C[C@@H]2O` [paclitaxel, reference compound]?
A: induction of apoptosis (ELISA) [21]: induced apoptosis in all cells tested; induction of apoptosis (ELISA) [28]: induced apoptosis in all cells tested; induction of apoptosis (ELISA) [29]: induced apoptosis in all cells tested; induction of apoptosis (ELISA) [22]: induced apoptosis in all cells tested
